The source of these data is PMC12380353, “MK-8527 is a novel inhibitor of HIV-1 reverse transcriptase translocation with potential for extended-duration dosing” (PLOS Biology, 2025).

Several values for one entry are separate records, joined by “and”; a condition that tells them apart may be missing. Equal entries are not always repeated. Where two headings read alike, the source gives them in different places.

Data set [1] has as its target T1, HIV RT (Human immunodeficiency virus type 1 group M subtype B, UniProt P04585).
T1 construct: HIV RT (final concentration, 1,200 nM)
Kind of data set: HIV-RT primer extension assay (chain termination). Format: biochemical. The following applies: 1 µM each dNTP. As to the method:
The reaction protocol was adapted from previous work. Primers and template used for this assay are described in Fig 8A.
All reagent stocks were in a base assay buffer consisting of 50 mM Tris pH 7.5 and 50 mM NaCl in nuclease-free water. […] Samples were then heated to 95 °C for 10 min prior to storage at −20 °C until being resolved by polyacrylamide gel electrophoresis with 7 M urea.

In data set [2] the target is T1, HIV RT. Kind of data set: Iron footprinting assay of RT translocation state. To be noted: 1 µM MK-8527-TP or ISL-TP, 5 µM ddATP; absence or presence of dTTP. The class given is biochemical. As to the method:
The translocation state of RT was assessed with a site-specific iron footprinting assay adapted from previous work. Primer and template used for this assay are described in Fig 7A. The presence of Fe^2+ ions in the reaction generated hydroxyl radicals that cleaved the DNA template in a site-specific manner at the nucleotide closest to the RNase H active site. In addition to an RT inhibitor in the reaction, dTTP, the subsequent dNTP, was provided in dose titration to force the translocation of the 3′-primer terminus from the pre-translocation N-site to the post-translocation P-site.
(final concentration, 1 µM), or ddATP (final concentration, 5 µM), Td43/Pd30 pre-annealed primer and template (final concentration, 200 nM based on Cy3-labeled Td43 concentration), and dTTP titrated at various concentrations. All reagent stocks were in a base assay buffer consisting of 120 mM Tris pH 7.5, 20 mM NaCl, and 6 mM MgCl2 in nuclease-free water. […] The reaction was then heated to 37 °C for 5 min before quenching 1:1 with gel-loading dye followed by heating at 95 °C for 10 min. Samples were stored at −20 °C until being resolved by polyacrylamide gel electrophoresis with 7 M urea.

Data set [3] concerns HIV-1. The following applies: HIV-1, PBMCs; read-out: PBMC IC50; cited from earlier work.
Data set [4] in a line: CellTiter-Glo (CTG) cytotoxicity in MT4-GFP cells. To be noted: human.
The test system of data set [5] is HIV-1. As to the kind of experiment: microbe, parasite or virus in culture.
Data set [6] relates to HIV-1. As to the kind of experiment: microbe, parasite or virus in culture. The following applies: for IC50: Human immunodeficiency virus 1, PBMC. As for the experimental part: IC50 values were determined, and a persistence ratio was calculated for each compound. GFP, green fluorescent protein; hpi, hours post-infection; IC50, half maximal inhibitory concentration.
Assay media in each well were then evacuated and the cells resuspended using the gentle setting on the BlueWasher (BlueCatBio; Lebanon, NH, USA). Centrifugation and wash steps were repeated to ensure removal of extracellular compound.
MT4-GFP cells were infected with WT R8 virus, and PBMCs were infected with pNLG1-P2A-GFP. […] IC50 values were determined by nonlinear 4-parameter curve fitting of the data. A persistence ratio was calculated for each compound by dividing the IC50 from variable B (IC50B) by the IC50 from variable A (IC50A).

In data set [7] the test system is HIV-1. As to the kind of experiment: Multicycle antiviral assay in MT4-GFP cells. To be noted: WT HIV-1, multicycle assay, 10% NHS. Format: cell-based. As for the experimental part: Compounds were evaluated for their ability to prevent HIV-1 infection in MT4-GFP cells as described in Diamond, and colleagues. HIV-1 replication was monitored using the MT4-gag-GFP clone D3, and MT4 cells with a GFP reporter gene, the expression of which is dependent on the HIV-1 expressed proteins tat and rev. […] Proviral variants used for these studies were generated by site-directed mutagenesis in the WT R8 proviral plasmid. Virus was produced by transfection in 293T cells.
Briefly, MT4-GFP cells were cultured overnight with the appropriate HIV-1 variant at an approximate multiplicity of infection of 0.01. After approximately 19 h of infection, the cells were washed and resuspended in assay media containing 10% normal human serum (NHS) before being added to 384-well compound plates containing 10-point serial 3-fold dilutions of compound. Controls included no inhibitor (dimethyl sulfoxide [DMSO] only) and a combination of 3 antiviral agents, efavirenz, indinavir, and an integrase strand transfer inhibitor, L-002254051, at final concentrations of 4 µM each. The infected or treated cells were cultured at 37 °C, 5% CO2, and 90% humidity until evaluation of infection was conducted at approximately 48 and 72 h post-infection by counting the number of GFP cells in each well using an Acumen eX3 scanner (SPT Labtech; Melbourn, UK). The reproductive ratio, R, was calculated by dividing the number of infected cells at 72 h by the number at 48 h post-infection. The percentage inhibition caused by a test compound was calculated by the following formula:
inhibition = [1−(Rtest compound − Rpositive control)]/(RDMSO only − Rpositive control) × 100%\]
The dose–response curves of each test compound were plotted as percentage inhibition versus the test concentration.

Data set [8] concerns MT4-GFP cells. As to the kind of experiment: CellTiter-Glo (CTG) cytotoxicity in MT4-GFP cells. The following applies: read-out: MT4-GFP CTG CC50, CellTiter-Glo.
Data set [9] relates to HIV-1. Kind of data set: Single-cycle antiviral assay in PBMCs. The class given is cell-based. The following applies: HIV-1, single-cycle assay, human PBMCs, 10% NHS; read-out: PBMC IC50. As for the experimental part:
To evaluate the ability of inhibitors to prevent HIV-1 infection in primary cells, human PBMCs obtained from Biological Specialty Corporation (Colmar, PA, USA) were used to assess antiviral activity. The proviral variants used for these studies were generated by site-directed mutagenesis in a proviral vector derived from NL43 [52] that encodes GFP (pNLG1-P2A-GFP). Virus was produced by transfection in 293T cells.
PBMCs were activated with phytohemagglutinin (PHA) at 5 μg/mL in Roswell Park Memorial Institute (RPMI) 1640 medium containing 10% heat-inactivated fetal bovine serum (FBS) for 2–3 days. Compound plates were prepared by dispensing compounds dissolved in DMSO into 384-well poly-d-lysine-coated plates (0.2 μL per well) using an Echo acoustic dispenser (Labcyte; San Jose, CA, USA). Each compound was tested in a 10-point serial 3-fold dilution (typical final concentrations: 5,000 to 0.1 nM). Controls included no inhibitor (DMSO only) and a combination of 3 antiviral agents, efavirenz, indinavir, and the integrase strand transfer inhibitor, L-002254051, at final concentrations of 4 μM each. PHA-activated human PBMCs were washed and resuspended in RPMI 1640 containing 10% NHS and 30 units per mL of interleukin-2 (IL-2) at 6 × 10^5 cells per mL. PBMCs were added to the compound plates and cultured for 24 h at 37 °C, 5% CO2, and 90% humidity. The appropriate HIV-1 variant was added to the PBMCs and cultured at 37 °C, 5% CO2, and 90% humidity for an additional 24 h.
HIV-1–infected cells were quantified by counting the number of GFP cells in each well using an Acumen eX3 scanner (SPT Labtech; Melbourn, UK).

The subject of data set [10] is HIV-1.

Turning to `Nc1ncnc2c1ncn2[C@H]1CC[C@@H](CO[P@@](=O)(O)O[P@](=O)(O)OP(=O)(O)O)O1` [ddATP, dideoxyadenosine triphosphate, reference compound], in data set [1], the “Chain termination mechanism (ICT/DCT)” value is given as “only inhibits via ICT”. The “Translocation state of RT” value in data set [2] was “mostly in the post-translocation state”.

As for `C#C[C@]1(CO)O[C@@H](n2cnc3c(N)nc(F)nc32)C[C@@H]1O` [ISL, 4′-ethynyl-2-fluoro-2′-deoxyadenosine, reference compound], the IC50 in data set [3] is 0.2 nM and 0.23 nM; in data set [5] (Human immunodeficiency virus 1, 48 h, read-out: Persistence assay IC50B, MT4-GFP cells), 25.5 ± 9.96 nM; in data set [5] (Human immunodeficiency virus 1, read-out: Persistence assay IC50A, MT4-GFP cells) it was 0.89 ± 0.63 nM; in [6] (48 h, read-out: Persistence assay IC50B, PBMCs) it was 39.7 ± 23.9 nM; in [6] (read-out: Persistence assay IC50A, PBMCs), 0.8 ± 0.48 nM. For the same molecule, the CC50 in data set [4] was > 42000 nM.

With “(2R,3S,5R)-5-(4-amino-5-methyl-7H-pyrrolo[2,3-d]pyrimidin-7-yl)-2-ethynyl-2-(hydroxymethyl)tetrahydrofuran-3-ol [Compound 8]”, the IC50 in data set [7] was determined as 85.4 nM; in [9], 58.8 nM. In addition, in data set [8], the CC50 stood at 38800 nM. The “Persistence ratio (MT4-GFP)” value in data set [10] stood at 6. Besides, in data set [6] (IC50B/IC50A, PBMCs), the “Persistence ratio (PBMC)” value is 18.
